{"source": "patent US10774051B2", "about": "“6-membered heterocyclic derivatives and pharmaceutical composition comprising the same” (Shionogi & Co., Ltd., priority 2015, dated 2020)", "note": "pIC50: −log10 of the molar value."}
{"molecular_target": "human P2X7 receptor (Homo sapiens, UniProt Q99572, R270H/Y155H)", "assay": "Evaluation of human P2X7 receptor inhibitory activity (Yo-Pro uptake, BzATP stimulation, FLIPR TETRA)", "format": "cell-based", "settings": "1321N1 cells stably expressing human P2X7 receptor; BzATP stimulation, Yo-Pro uptake; read-out: IC50 (antagonistic activity for the human P2X7 receptor)", "how_it_was_run": "(§1)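 1321N1 cells stably expressing human P2X7 (T606C/G952A SNP variant), in HBSS buffer pH 7.4-7.5 with Yo-Pro, stimulated with BzATP; compound added 8 min after agonist. Fluorescence followed for 20 min on FLIPR; max-minus-min change gave % inhibition, IC50 by logistic fit.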"}
{"smiles": "COc1cn(Cc2cc(F)cc(F)c2)c(Nc2ccc3c(c2C)COC3)nc1=O", "note": "[Compound I-0900]", "pIC50": 7.92}
{"smiles": "COc1cn(Cc2ccc(F)c(Cl)c2)c(Nc2cc3c(cc2C)OCC=C3)nc1=O", "note": "[Compound I-0912]", "pIC50": 7.66}
{"smiles": "COc1cn(Cc2ccc(F)c(Cl)c2)c(Nc2cc3c(cc2C)OCCC3)nc1=O", "note": "[Compound I-0914]", "pIC50": 7.66}
{"smiles": "COc1cn(Cc2cc(F)cc(F)c2)c(Nc2cc(C)c(OC(F)(F)F)cc2C)nc1=O", "note": "[Compound I-0924]", "pIC50": 7.77}
{"smiles": "COc1cn(Cc2cc(F)cc(F)c2)c(Nc2c(C)ccc(C)c2F)nc1=O", "note": "[Compound I-0928]", "pIC50": 8.00}
{"smiles": "COc1cn(Cc2cc(F)c(F)c(F)c2)c(Nc2cc3scnc3cc2C)nc1=O", "note": "[Compound I-0935]", "pIC50": 8.22}
{"smiles": "COc1cn(Cc2cc(F)c(F)c(F)c2)c(Nc2ccc3[nH]ccc3c2C)nc1=O", "note": "[Compound I-0939]", "pIC50": 8.40}
{"smiles": "COc1cn(Cc2cc(F)c(F)c(F)c2)c(Nc2cc3sc(C)nc3cc2C)nc1=O", "note": "[Compound I-0940]", "pIC50": 6.62}
{"smiles": "COc1cn(Cc2ccc(F)c(Cl)c2)c(Nc2cc3cc[nH]c3cc2C)nc1=O", "note": "[Compound I-0941]", "pIC50": 7.92}
{"smiles": "COc1cn(Cc2cc(F)c(F)c(F)c2)c(Oc2cc(-c3ncco3)ccc2C)nc1=O", "note": "[Compound I-0942]", "pIC50": 6.64}
{"molecular_target": "human P2X7 receptor (Homo sapiens, UniProt Q99572, R270H/Y155H)", "assay": "Evaluation of human P2X7 receptor inhibitory activity (Yo-Pro uptake, BzATP stimulation, FLIPR TETRA)", "format": "cell-based", "settings": "antagonistic activity for the human P2X7 receptor; read-out: IC50", "how_it_was_run": "as §1"}
{"smiles": "COc1cn(Cc2ccc(F)c(Cl)c2)c(Nc2cc(N3CCCC3)ccc2C)nc1=O", "note": "[Compound I-0884]", "pIC50": "7.00 to 8.00"}
{"smiles": "COc1cn(Cc2cc(F)cc(F)c2)c(Nc2cc(N3CCCC3)ccc2C)nc1=O", "note": "[Compound I-0885]", "pIC50": "7.00 to 8.00"}
{"smiles": "COc1cn(Cc2ccccc2)c(Nc2cc(F)c(Cl)cc2C)nc1=O", "note": "[Compound I-0886]", "pIC50": "7.00 to 8.00"}
{"smiles": "COc1cn(Cc2ccc(F)c(Cl)c2)c(Nc2cc(F)c(Cl)cc2C)nc1=O", "note": "[Compound I-0887]", "pIC50": "7.00 to 8.00"}
{"smiles": "COc1cn(Cc2ccccc2)c(Nc2cc(OC3CC3)ccc2C)nc1=O", "note": "[Compound I-0888]", "pIC50": "7.00 to 8.00"}
{"smiles": "COc1cn(Cc2ccc(F)c(Cl)c2)c(Nc2cc(OC3CC3)ccc2C)nc1=O", "note": "[Compound I-0889]", "pIC50": "> 8.00"}
{"smiles": "COc1cn(Cc2ccc(F)c(F)c2)c(Nc2cc(OC3CC3)ccc2C)nc1=O", "note": "[Compound I-0890]", "pIC50": "7.00 to 8.00"}
{"smiles": "COc1cn(Cc2cc(F)cc(Cl)c2)c(Nc2cc(OC3CC3)ccc2C)nc1=O", "note": "[Compound I-0891]", "pIC50": "7.00 to 8.00"}
{"smiles": "COc1cn(Cc2cc(F)cc(F)c2)c(Nc2cc(OC3CC3)ccc2C)nc1=O", "note": "[Compound I-0892]", "pIC50": "7.00 to 8.00"}
{"smiles": "CCOc1cn(Cc2ccccc2)c(Nc2cc(OC)c(OC)cc2CC)nc1=O", "note": "[Compound I-0893]", "pIC50": "> 8.00"}
{"smiles": "COc1cn(Cc2cc(F)c(F)c(F)c2)c(Nc2cc(-n3cccc3)ccc2C)nc1=O", "note": "[Compound I-0894]", "pIC50": "> 8.00"}
{"smiles": "COc1cn(Cc2ccccc2)c(Nc2cc(Oc3ccccn3)ccc2C)nc1=O", "note": "[Compound I-0895]", "pIC50": "7.00 to 8.00"}
{"smiles": "COc1cn(Cc2ccc(F)c(Cl)c2)c(Nc2cc(Oc3ccccn3)ccc2C)nc1=O", "note": "[Compound I-0896]", "pIC50": "> 8.00"}
{"smiles": "COc1cn(Cc2cc(F)cc(F)c2)c(Nc2cc(Oc3ccccn3)ccc2C)nc1=O", "note": "[Compound I-0897]", "pIC50": "> 8.00"}
{"smiles": "COc1cn(Cc2ccc(F)cc2)c(Nc2cc(Oc3ccccn3)ccc2C)nc1=O", "note": "[Compound I-0898]", "pIC50": "7.00 to 8.00"}
{"smiles": "COc1cn(Cc2cc(F)c(F)c(F)c2)c(Nc2cc(Oc3ccccn3)ccc2C)nc1=O", "note": "[Compound I-0899]", "pIC50": "> 8.00"}
{"smiles": "COc1cn(Cc2ccccc2)c(Nc2cccc3c(=O)n(C)ccc23)nc1=O", "note": "[Compound I-0901]", "pIC50": "6.30 to 7.00"}
{"smiles": "COc1cn(Cc2ccc(F)c(Cl)c2)c(Nc2cccc3c(=O)n(C)ccc23)nc1=O", "note": "[Compound I-0902]", "pIC50": "7.00 to 8.00"}
{"smiles": "COc1cn(Cc2ccc(F)c(F)c2)c(Nc2cccc3c(=O)n(C)ccc23)nc1=O", "note": "[Compound I-0903]", "pIC50": "7.00 to 8.00"}
{"smiles": "COc1cn(Cc2cc(F)cc(Cl)c2)c(Nc2cccc3c(=O)n(C)ccc23)nc1=O", "note": "[Compound I-0904]", "pIC50": "7.00 to 8.00"}
{"smiles": "COc1cn(Cc2cc(F)cc(F)c2)c(Nc2cccc3c(=O)n(C)ccc23)nc1=O", "note": "[Compound I-0905]", "pIC50": "6.30 to 7.00"}
{"smiles": "COc1cn(Cc2ccc(F)c(Cl)c2)c(Nc2cc3c(cc2C)COC3)nc1=O", "note": "[Compound I-0906]", "pIC50": "7.00 to 8.00"}
{"smiles": "COc1cn(Cc2ccc(F)c(Cl)c2)c(Nc2ccc3c(c2C)COC3)nc1=O", "note": "[Compound I-0907]", "pIC50": "> 8.00"}
{"smiles": "CCc1cc(OC)c(OC)cc1Nc1nc(=O)c(OC)cn1Cc1cc(F)c(F)c(F)c1", "note": "[Compound I-0908]", "pIC50": "> 8.00"}
{"smiles": "CCOc1cn(Cc2ccc(F)c(Cl)c2)c(Nc2cc(OC)c(OC)cc2CC)nc1=O", "note": "[Compound I-0909]", "pIC50": "7.00 to 8.00"}
{"smiles": "COc1cn(Cc2cc(F)c(F)c(F)c2)c(Nc2ccc3c(c2C)COC3)nc1=O", "note": "[Compound I-0911]", "pIC50": "7.00 to 8.00"}
{"smiles": "COc1cn(Cc2cc(F)cc(F)c2)c(Nc2cc3c(cc2C)OCCC3)nc1=O", "note": "[Compound I-0913]", "pIC50": "7.00 to 8.00"}
{"smiles": "C#Cc1cc(Nc2nc(=O)c(OC)cn2Cc2cc(F)cc(F)c2)c(C)cc1F", "note": "[Compound I-0915]", "pIC50": "7.00 to 8.00"}
{"smiles": "C#Cc1cc(Nc2nc(=O)c(OC)cn2Cc2ccc(F)c(Cl)c2)c(C)cc1F", "note": "[Compound I-0916]", "pIC50": "7.00 to 8.00"}
{"smiles": "COc1cn(Cc2cc(F)c(F)c(F)c2)c(Nc2cc3c(cc2C)OCCC3)nc1=O", "note": "[Compound I-0917]", "pIC50": "7.00 to 8.00"}
{"smiles": "CCOc1cc(Nc2nc(=O)c(OC)cn2Cc2ccccc2)c(C)cc1F", "note": "[Compound I-0918]", "pIC50": "7.00 to 8.00"}
{"smiles": "CCOc1cc(Nc2nc(=O)c(OC)cn2Cc2ccc(F)c(Cl)c2)c(C)cc1F", "note": "[Compound I-0919]", "pIC50": "7.00 to 8.00"}
{"smiles": "CCOc1cc(Nc2nc(=O)c(OC)cn2Cc2cc(F)cc(F)c2)c(C)cc1F", "note": "[Compound I-0920]", "pIC50": "7.00 to 8.00"}
{"smiles": "CCOc1cc(Nc2nc(=O)c(OC)cn2Cc2cc(F)c(F)c(F)c2)c(C)cc1F", "note": "[Compound I-0921]", "pIC50": "> 8.00"}
{"smiles": "COc1cn(Cc2ccccc2)c(Nc2cc(C)c(OC(F)(F)F)cc2C)nc1=O", "note": "[Compound I-0922]", "pIC50": "> 8.00"}
{"smiles": "COc1cn(Cc2ccc(F)c(Cl)c2)c(Nc2cc(C)c(OC(F)(F)F)cc2C)nc1=O", "note": "[Compound I-0923]", "pIC50": "7.00 to 8.00"}
{"smiles": "COc1cn(Cc2cc(F)c(F)c(F)c2)c(Nc2cc(C)c(OC(F)(F)F)cc2C)nc1=O", "note": "[Compound I-0925]", "pIC50": "7.00 to 8.00"}
{"smiles": "COc1cn(Cc2ccccc2)c(Nc2c(C)ccc(C)c2F)nc1=O", "note": "[Compound I-0926]", "pIC50": "7.00 to 8.00"}
{"smiles": "COc1cn(Cc2ccc(F)c(Cl)c2)c(Nc2c(C)ccc(C)c2F)nc1=O", "note": "[Compound I-0927]", "pIC50": "> 8.00"}
{"smiles": "COc1cn(Cc2cc(F)c(F)c(F)c2)c(Nc2c(C)ccc(C)c2F)nc1=O", "note": "[Compound I-0929]", "pIC50": "> 8.00"}
{"smiles": "COc1cn(Cc2ccc(F)c(Cl)c2)c(Nc2cc3c(cc2C)OCCC3=O)nc1=O", "note": "[Compound I-0930]", "pIC50": "6.30 to 7.00"}
{"smiles": "COc1cn(Cc2cc(F)c(F)c(F)c2)c(Nc2cc(N3CCOCC3)ccc2C)nc1=O", "note": "[Compound I-0931]", "pIC50": "7.00 to 8.00"}
{"smiles": "COc1cn(Cc2cc(F)c(F)c(F)c2)c(Nc2cc(OCC(F)(F)F)ccc2C)nc1=O", "note": "[Compound I-0932]", "pIC50": "7.00 to 8.00"}
{"smiles": "COc1cn(Cc2cc(F)c(F)c(F)c2)c(Nc2ccc(Oc3ccnc(F)c3)cc2C)nc1=O", "note": "[Compound I-0933]", "pIC50": "6.30 to 7.00"}
{"smiles": "COc1cn(Cc2cc(F)c(F)c(F)c2)c(Nc2cc3sc(C(F)F)nc3cc2C)nc1=O", "note": "[Compound I-0934]", "pIC50": "7.00 to 8.00"}
{"smiles": "COc1ccc(C)cc1Nc1nc(=O)c(OC)cn1Cc1cc(F)c(F)c(F)c1", "note": "[Compound I-0936]", "pIC50": "7.00 to 8.00"}
{"smiles": "Cc1nc2cc(C)c(Nc3nc(=O)c(F)cn3Cc3cc(F)c(F)c(F)c3)cc2s1", "note": "[Compound I-0937]", "pIC50": "> 8.00"}
{"smiles": "COc1cn(Cc2cc(F)c(F)c(F)c2)c(Nc2cc3cc[nH]c3cc2C)nc1=O", "note": "[Compound I-0938]", "pIC50": "> 8.00"}
